The values below come from US20070104716A1, “Methods for controlling pathological angiogenesis by inhibition of a6b4 integrin” (SLOAN-KETTERING INSTITUTE FOR CANCER RESEARCH, priority 2003, published 2007).

The experiment relates to HUVECs expressing wild-type α6β4. Briefly: in vitro wound closure (migration) assay on laminin-5 in response to bFGF. Format: cell-based, Human. As to conditions: plated on laminin-5, bFGF, wound closure at 8 hours (FIG. 4A). Here is the method: When indicated, migrating cells were treated with the NF-kB inhibitor BAY 11-7082 ([…]) or the MAPK inhibitor PD98059 (50 μM).
To examine the effect of α6β4 signaling on endothelial cell migration, parental HUVECS and their derivatives expressing either wild-type or mutant α6β4 were plated on laminin-5 at confluency and subjected to in vitro wound assay. Expression of wild-type α6β4 increased endothelial cell migration in response to bFGF.
To examine the role of ERK and NF-OB signaling in endothelial cell migration, HUVECs expressing wild-type α6β4 were subjected to in vitro wound closure assay in the presence of the MEK inhibitor PD98059 or the NF-kB inhibitor BAYI 1-072.
HUVECs were electroporated with equimolar amounts of plasmids encoding α6 and either β4 or β4-1355T (Dans et al., 2001), deprived of growth factors for 18 hours, and then panned on plates coated with the anti-β4 mAb 3E1. Bound cells were washed with PBS and recovered by trypsin-EDTA treatment. For in vitro wound assays, equal numbers of cells expressing wild-type β4 or mutant β4-1355T were plated on dishes coated with laminin-5, grown until confluent, and starved. […] Wound closure was monitored by digital photography. […] HUVECS Invasion was quantified 72 hours later by counting the average number of capillary-like structures per microcarrier bead.

Take `Cc1ccc(S(=O)(=O)/C=C/C#N)cc1` [BAYI 1-072]: the “migration of α6β4-expressing HUVECs (wound closure)” value (BAY 11-7082 12.5PM) was “reduced the migration of α6β4-expressing HUVECs to levels similar to those displayed by control HUVECs or HUVECs expressing mutant α6β4”.

Turning to `COc1cccc(-c2cc(=O)c3ccccc3o2)c1N` [PD98059], the “migration of α6β4-expressing HUVECs (wound closure)” value (PD98059 50 μM) was “reduced the migration of α6β4-expressing HUVECs to levels similar to those displayed by control HUVECs or HUVECs expressing mutant α6β4”.
